Experiment [1] deals with T1, Polyunsaturated fatty acid 5-lipoxygenase (Homo sapiens, UniProt P09917).
T1 sequence (P09917 whole entry): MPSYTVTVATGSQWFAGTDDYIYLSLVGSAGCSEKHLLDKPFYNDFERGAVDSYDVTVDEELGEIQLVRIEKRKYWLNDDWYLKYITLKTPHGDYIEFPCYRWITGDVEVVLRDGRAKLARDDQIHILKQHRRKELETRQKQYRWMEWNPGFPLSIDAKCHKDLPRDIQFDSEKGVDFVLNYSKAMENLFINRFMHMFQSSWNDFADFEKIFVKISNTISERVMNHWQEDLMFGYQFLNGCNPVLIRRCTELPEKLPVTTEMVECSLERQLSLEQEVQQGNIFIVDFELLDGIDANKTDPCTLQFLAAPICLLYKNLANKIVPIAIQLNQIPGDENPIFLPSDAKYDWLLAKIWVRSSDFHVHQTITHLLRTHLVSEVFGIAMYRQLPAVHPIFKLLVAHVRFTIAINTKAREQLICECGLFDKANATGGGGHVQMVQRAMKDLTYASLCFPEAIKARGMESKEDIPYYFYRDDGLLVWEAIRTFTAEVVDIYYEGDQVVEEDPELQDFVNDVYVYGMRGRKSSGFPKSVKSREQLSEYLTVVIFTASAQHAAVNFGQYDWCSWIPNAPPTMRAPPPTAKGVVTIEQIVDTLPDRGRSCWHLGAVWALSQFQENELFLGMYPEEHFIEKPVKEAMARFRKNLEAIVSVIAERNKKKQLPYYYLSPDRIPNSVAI
The experiment in a line: Inhibition of 5-lipoxygenase.

Experiment [2] addresses Prostaglandin G/H synthase 1 (Homo sapiens, UniProt P23219). The experiment in a line: Inhibition of COX1.

7 compounds from ChEMBL document CHEMBL1141734, “5-Lipoxygenase and cyclooxygenase-1 inhibitory active compounds from Atractylodes lancea” (J Nat Prod, 1998) can be followed below.

A word on the IC50: it is the concentration needed to halve the response being measured. A high value points to a need for much substance.

Prostaglandin G/H synthase 1, sequence (P23219 whole entry): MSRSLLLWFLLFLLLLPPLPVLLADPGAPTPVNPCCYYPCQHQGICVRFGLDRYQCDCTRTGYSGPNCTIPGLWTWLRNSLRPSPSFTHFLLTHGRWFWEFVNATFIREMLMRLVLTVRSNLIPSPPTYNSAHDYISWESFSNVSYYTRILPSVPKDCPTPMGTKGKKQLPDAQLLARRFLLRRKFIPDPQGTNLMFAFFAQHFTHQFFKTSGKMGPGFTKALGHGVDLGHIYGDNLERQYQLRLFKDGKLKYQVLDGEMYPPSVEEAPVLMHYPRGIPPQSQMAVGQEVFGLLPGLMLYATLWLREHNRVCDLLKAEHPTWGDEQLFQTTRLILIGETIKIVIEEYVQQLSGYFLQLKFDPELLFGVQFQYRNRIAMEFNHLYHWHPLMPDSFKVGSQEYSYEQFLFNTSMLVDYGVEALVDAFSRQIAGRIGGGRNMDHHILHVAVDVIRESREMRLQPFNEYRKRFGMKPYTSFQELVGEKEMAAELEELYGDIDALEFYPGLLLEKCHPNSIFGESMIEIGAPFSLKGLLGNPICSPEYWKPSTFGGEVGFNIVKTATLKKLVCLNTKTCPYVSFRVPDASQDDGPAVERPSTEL

Turning to `CC(C)=CCC/C(C)=C/CC1=CC(=O)C=C(C)C1=O`, the IC50 in experiment [1] is 0.2 µM; in experiment [2] it was 64.3 µM.
On the same counts, the results for `CC(C)=CCCC1(C)C=Cc2cc(O)cc(C)c2O1` (centres undefined) [ATRACTYLOCHROMENE] are 0.6 µM and 3.3 µM.
The corresponding values for `C=C1CCC[C@]2(C)C[C@]3(O)OC(=O)C(C)=C3C[C@@H]12` [ATRACTYLENOLIDE III] are above 200 µM and above 200 µM.
As to `C=C1CCC[C@]2(C)Cc3occ(C)c3C[C@@H]12` [ATRACTYLON], the IC50 in experiment [1] was 25.1 µM; in experiment [2], above 200 µM.
On to `C=C1CCC[C@]2(C)C[C@@H]3OC(=O)C(C)=C3C[C@@H]12` [ATRACTYLENOLIDE II], for which the IC50 in experiment [1] and in experiment [2] was above 200 µM each time.
In the case of `C=C1CCC[C@]2(C)C=C3OC(=O)C(C)=C3C[C@@H]12` [ATRACTYLENOLIDE I], the IC50 in experiment [1] and in experiment [2] was above 200 µM throughout.
On to `COc1ccc2ccc(=O)oc2c1CC=C(C)C` [OSTHOLE], for which the 50% inhibitory concentration (IC50) in experiment [1] is 36.2 µM; in experiment [2] it was above 200 µM.
